Reference: ChEMBL document CHEMBL5375991, “Bioorthogonal Bond Cleavage Chemistry for On-demand Prodrug Activation: Opportunities and Challenges” (J Med Chem, 2023)

Tests used:
[1] = Stability of compound in 3% DMSO/PBS measured after 24 hrs relative to control; type: physicochemical; settings: read-out: Stability
[2] = Stability in human plasma measured after 4 hrs; type: ADME, cell-free; settings: read-out: Stability

Compound | remaining at 24 h [1] [%] | remaining at 4 h [2] [%]
O=C(O)c1ccc(-c2[s+]c(-c3ccc(N(c4ccccc4)c4ccccc4)cc3)sc2[O-])cc1 | 47.6 | 
CCC[N+]1=C(/C=C/C2=C3Oc4cc(NC(=O)O[C@@H]5/C=C/CCCCC5)ccc4C=C3CCC2)C(C)(C)c2ccccc21 |  | 77
